Laboratory results from article PMC9146423, “Discovery of Nitro-azolo[1,5-a]pyrimidines with Anti-Inflammatory and Protective Activity against LPS-Induced Acute Lung Injury” (Pharmaceuticals, 2022).

Columns and labels:
[1] = tested on: LPS-stimulated peritoneal macrophages of C57bl/6j mice; assay: Cell viability of LPS-stimulated macrophages, MTT test; format: cell-based; conditions: male, C57bl/6j, mouse, 24 h, 100 μM
Experimental: (§1) Peritoneal macrophages (PM) were isolated from the peritoneal exudate of 30 male C57bl/6j mice. To accumulate PM, 1 mL of 3% peptone solution was injected intraperitoneally. After 3 days, the mice were euthanized by cervical dislocation. Cells of peritoneal exudate were obtained by aseptic washing of the abdominal cavity with 5 mL of sterile Hanks’s solution (+4–6 °C) without calcium and magnesium ions. The total number and viability of cells were assessed in a Goryaev counting chamber (Russia) with a 0.4% trypan blue staining (Sigma-Aldrich, St. Louis, MO, USA). The cell concentration was adjusted to 1.0 × 10^6 cells/mL in DMEM (Gibco) supplemented with 2 mM L-glutamine (Gibco, Waltham, MA, USA), 10% heat-inactivated fetal bovine serum (BioClot, Bavaria, Germany), 100 U/mL penicillin, and […] streptomycin (Gibco) and plated 200 μL/well in 96-well transparent plates (SPL Life Sciences Co., Ltd., Pocheon-si, Korea). After 2 h at 37 °C in a humidified atmosphere with 5% CO2, the wells were washed to remove non-adherent cells. After 24 h of incubation, 20 μL of the supernatants were substituted with 20 μL of solutions of test compounds, followed by E. coli O127:B8 LPS (100 ng/mL final concentration) after 30 min. The experiments were run in 3 independent replicates.
(§2) The activity of lactate dehydrogenase (LDH) in a cell culture medium served as a marker of membrane permeability and cell death. Aliquotes of supernatants were taken after 24 h of inoculation with test compounds, mixed with 250 μL of […] NADH solution in 54 mM phosphate-buffered saline (pH 7.5). Then, 25 μL of a 6.48 mM pyruvate solution was added to the mixture. The optical density was followed at a wavelength of 340 nm for 20 min. The MTT-test was performed 24 h after incubations of cells with tested compounds. Briefly, 20 μL of MTT solution was added to each well, incubated at 37 °C in a humidified atmosphere containing 5% CO2 for 4 h. The culture medium was removed, the cells were lysed, and formazan crystals were dissolved in 150 μL DMSO. The plates were shaken at room temperature for 10 min, and the optical density was measured in a microplate reader Infinite M200 PRO (Tecan, Grödig, Austria) at a wavelength of 565 nm.

[2] = as above; format: cell-based; conditions: male, C57bl/6j, mouse
Experimental: as §1, §2

[3] = tested on: LPS-stimulated peritoneal macrophages of C57bl/6j mice; assay: Inhibition of LPS-induced NO synthesis (nitrite accumulation, Griess reagent) in peritoneal macrophages; format: cell-based, mouse; conditions: Mus musculus, Peritoneal macrophage
Experimental: as §1
The accumulation of the nitrite anion (a stable end product of NO decomposition produced by iNOS) in supernatants was determined using a standard Griess reagent. Briefly, 50 μL of supernatants were collected 22 h after incubation of PM, and the test and control compounds were mixed with 50 μL of 1% […] in 2.5% H3PO4 and 50 μL of 0.1% N-(1-naphthyl) ethylenediamine in 2.5% H3PO4. After incubation at 23 °C for 10 min in an orbital shaker, the optical density was determined at a wavelength of 550 nm with a microplate reader Infinite M200 PRO (Tecan, Grödig, Austria).

## Cc1nc2nnnn2c(NCCc2ccc(O)cc2)c1[N+](=O)[O-] [Compound 9g, N-[2-(4-Hydroxyphenyl)ethyl]-5-methyl-6-nitrotetrazolo-[1,5-a]pyrimidin-7-amine]
[1]
  Cell Viability vs. LPS Control, MTT Test: 84.65 ± 5.83%
[2]
  CC50 at 24 h: > 100 µM
[3]; 22 h, 100 μM, m ± SD, read-out: Inhibition of NO Synthesis vs. LPS Control
  inhibition at 100 µM: 58.5 ± 5.93%
[3]; LPS-stimulated peritoneal macrophages
  IC50: 3.72 µM
